# Like-named read-outs stand apart in the source and are kept apart here.
# How the values were obtained:
# PGL3 5′UTR = assay: Secondary (counterscreen) luciferase assay in H4-C cells, IRE stem-loop removed; type: cell-based, human; settings: versus SNCA 5′UTR
# α-Synuclein [1] = assay: Western blots of α-syn in iPSC derived DA neuron lysates; type: cell-based, human; settings: 72 h
# [2] = tested on: α-Syn in tyrosine hydroxylase positive (TH+) neurons; assay: Immunocytochemical quantitation of α-Syn in TH+ SNCA+ neurons; type: cell-based; settings: low dose; decreased from 30 %
# Description: FIG. 14 illustrates that immunocytochemical quantitation of effect of Compound 2 on α-Syn expression in tyrosine hydroxylase positive (TH+) α-synuclein positive (SNCA+) neurons. Panel A: antibody stains for TH and α-Syn. TH positive cells were counted. TH positive and SNCA positive cells were counted. The quantification was done by collecting 9 image fields/well with 3 wells/condition Panel B. The images were fed into Cell Profiler (Broad software).
# alpha-synuclein = assay: ELISA secondary screen for alpha-synuclein in SH-SY5Y cells; type: cell-based, human; design: Decrease syn(%) SHSY5Y cells: unit of the concentration uncertain
# Experimental: FIG. 2 illustrates the results of ELISA experiments with compound 10 in SH-SY5Y cells. […]
# FIG. 18 illustrates alpha Synuclein ELISA (Invitrogen) measurements from SHSY5 undifferentiated neurons treated with the indicated doses (triplicate wells) of compounds 2, 13, 11, 14, 15, and 16) for 48 h.
# A human ASYN ELISA kit was utilized for all ELISA experiments (Invitrogen alpha-synuclein ELISA kit KHB0061) and the kit protocol was followed.
# 1) Plate SH-SY5Y […] cells (Corning, 3570) at 10,000 cells/well in 50 μL phenol red free media (phenol red-free DMEM with 4.5 g/L D-glucose [Lonza, 12-917F] supplemented with 10% FBS [Lonza, 14-503E], 200 μM L-glutamine [Lonza, 17-605E], 100 μM penstrep [Lonza, 17-602E] and 200 μg/mL geneticin [Invitrogen, 10131-027]).
# 2) Lid plates, then incubate cells for 24 hours at 37° C., 5% CO2, 95% humidity in a tissue culture incubator.
# 3) Pin 100 nL of each compound into the assay plates spanning a final concentration range from 100-0.006 μM.
# 4) Incubate plates for 48 h at 37° C., 5% CO2, 95% humidity. Following incubation, add 5 μL of Alamar blue solution per well and allow to incubate for 1 h at 37° C., 5% CO2, 95% humidity.
# 5) Read Alamar blue fluorescence using a Thermo Varioskan (570 nm excitation, 585 nm emission). Remove cell media and add 30 μL cell lysis solution with protease inhibitor (G Biosciences, 786-331; 10 μL/mL).
# 6) Place plates on a plate shaker for 1 h, before removing 20 μL lysate. Transfer cell lysates to 500 μL Eppendorf tubes and centrifuge (Eppendorf Centrifuge 5417C) for 10 min at 13,000 rpm.
# 7) Add 12 μL of the cell supernatant to 48 μL of standard diluent buffer (1:5). Add these samples to ELISA plate wells. Prepare ASYN standard curve wells as described in the kit manual.
# 8) Add 50 μL of anti-α-Synuclein (Detection Antibody) solution to each well, tapping the plate to mix. Cover the plate with a tape seal and incubate for 3 h at RT.
# 9) Wash wells four times with wash buffer using a multichannel pipette and add 100 μL of anti-rabbit IgG-HRP antibody solution to each well. Cover the plate and incubate for 30 min at RT. Wash wells four times with wash buffer and add 100 μL of Stabilized Chromogen to each well. Seal the plate and incubate in the dark at RT for 30 min.
# 10) Finally, add 100 μL of Stop Solution to each well, tapping the plate to mix, and read absorbance at 450 nm using an Envision plate reader (Perkin Elmer).
# SNCA IRE = assay: Spinach fluorescent assay, SNCA IRE fluorescence sensor R7
# α-Synuclein [3] = assay: Decrease of α-syn in iPSC derived DA neurons; type: cell-based, human; design: Decrease syn(%) DA neurons: dose or concentration left out as unconfirmed
# [4] = tested on: alpha-synuclein 5′-UTR IRE (SNCA 5′UTR); assay: Primary screen/retest: ASYN 5′-UTR IRE-driven luciferase expression in H4 cells; type: cell-based, human; settings: Homo sapiens, 48 h
# [5] = tested on: PrP-5′UTR (prion protein IRE); type: cell-based, human; settings: versus SNCA 5′UTR
# α-Syn = assay: Decrease of α-syn in Triple SNCA cortical neurons; settings: Table 2; concentration not given
compound,measurement,setting,value
"COc1ccc(N(CC(=O)Nc2cc(Cl)ccc2OC)S(=O)(=O)c2c(C)noc2C)cc1 [Compound 2, N-(5-chloro-2-methoxyphenyl)-2-((N-(4-methoxyphenyl)-3,5-dimethylisoxazole)-4-sulfonamido)acetamide]",Selectivity PGL3 5′UTR,PGL3 5′UTR; Table 2,21-fold
same,Selectivity PGL3 5′UTR,PGL3 5′UTR; Table 3,21-fold
same,"inhibition of α-Synuclein protein expression versus β-Syn, γ-Syn, Ferritin, APP and Prion proteins","α-Synuclein [1]; 1 μM, normalized to β-Actin",selectively inhibit
same,α-syn levels (Western blot),"α-Synuclein [1]; 10 μM and 1 μM compound, β-actin standardized, N=3",reduced
same,number of TH/SNCA positive cells,[2],18%
same,Decrease αsyn(%) SHSY5Y cells,"alpha-synuclein; Table 2, @ 0.1 μM",25-50 @ 0.1%
same,Decrease syn(%) SHSY5Y cells,"alpha-synuclein; Table 3, @ 0.1 µM",25-50 @ 0.1M %
same,binding to SNCA IRE (fluorescence of sensor R7),SNCA IRE,significant increases in binding
same,Decrease αsyn(%) DA neurons,"α-Synuclein [3]; Table 2, @ 1 μM",60 @ 1 μM %
same,Decrease syn(%) DA neurons,α-Synuclein [3]; Table 3,60 @ 1M %
same,IC50,[4]; read-out: IC50/M (SNCA 5′UTR),5.8 µM
same,IC50,[4]; read-out: IC50/μM (SNCA 5′UTR),5.8 µM
same,Selectivity PrP-5′UTR,[5]; Table 2,18-fold
same,Selectivity PrP-5′UTR,[5]; Table 3,18-fold
same,Decrease αsyn(%) X3 SNCA neurons,α-Syn,50%

# — patent US20250170124A1, “METHODS OF DIAGNOSING AND TREATING NEURODEGENERATIVE DISEASES” (The General Hospital Corporation, priority 2022, published 2025)
